# From US4871727A, “Anti-inflammatory and antidegenerative compounds isolated from L-681,512” (Merck & Co, Inc., priority 1987, dated 1989)
# Molecular target: T1, Human Polymorphonuclear Leukocyte Elastase (Homo sapiens, UniProt P08246)
# T1 construct: Crude extract of human polymorphonuclear leukocytes (PMN) containing elastase activity; endogenous in cells; host or cells: human polymorphonuclear leukocytes (crude extract)
# T1 sequence (P08246 30-247 limits assumed): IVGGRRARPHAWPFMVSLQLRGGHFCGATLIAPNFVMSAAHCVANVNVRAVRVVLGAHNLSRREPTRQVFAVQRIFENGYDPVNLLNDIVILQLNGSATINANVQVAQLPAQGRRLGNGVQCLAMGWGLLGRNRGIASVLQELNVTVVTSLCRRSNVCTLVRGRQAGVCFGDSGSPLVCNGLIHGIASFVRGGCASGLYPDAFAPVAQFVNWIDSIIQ
# Experiment: Inhibition of human polymorphonuclear leukocyte (PMN) elastase via hydrolysis of N-t-Boc-alanyl-alanyl-prolyl-alanine-p-nitroanilide (two point or "zero time" assay)
# Assay type: biochemical
# Conditions: 50% inhibition of the enzyme activity 2 minutes after zero time; crude human PMN extract; 0.2 mM Boc-AAPAN, pH 7.5, 410 nm; read-out: ED50 (the source's name) (converted)
# Text: It is generally understood that the enzyme of interest is that enzyme against which the inhibitory activity of the fermentation broth samples are being determined and quantified (e.g., PMN elastase). Consequently, all of the remaining wells are charged with the same enzyme of interest. However, several enzymes of interest can be charged to a plurality of wells, and the wells grouped together to facilitate separate identification and assay. When this is done, separate control wells must then also be prepared to correspond to the different enzymes of interest.
# The chromogenic medium is charged to all the wells at substantially the same time and the time of this addition is noted. This is the "zero time" mentioned earlier as it is from that moment that a predetermined time lapse is measured during which sufficient reaction between the fermentation broth samples and the enzyme of interest occurs to enable not only accurate screening of enzyme inhibitory activity, but also the degree of that activity. Naturally, the predetermined time lapse will differ with different enzymes and can be from about 1 minute to about 20 minutes, typically from about 2 minutes to about 10 minutes.
# The chromogenic media typically used are aromatic nitro- containing compounds. Illustrative of such compounds are Boc-ala-ala-pro-ala-p-nitroanilide, -α-benzoyl-DL-arginine-p-nitroanilide, N-α-benzoyl-L-tyrosine-p-nitroanilide, and the like.
# Using the two point or "zero time" assay method described above, the following protocol was employed:
# Enzyme Assays for the Inhibition of Human Polymorphonuclear Leukocyte Elastase Via Hydrolysis of N-t-Boc-alanyl-alanyl-prolylalanine-p-nitroanilide
# 0.05M TES (N-tris[hydroxymethyl]methyl-2-amino-ethanesulfonic acid) Buffer, pH 7.5.
# 0.2 mM N-t-Boc-alanyl-alanyl-prolyl-alanine-p-nitroanilide (Boc-AAPAN).
# To prepare substrate, the solid (m.w. 550) was first dissolved in 10.1 ml DMSO. Buffer at pH 7.5 was then added to a final volume of 100 ml.
# Crude extract of human polymorphonuclear leukocytes (PMN) containing elastase activity.
# Inhibitors (cephalosporin sulfone esters) to be tested dissolved in DMSO just before use.
# To 1.0 ml of 0.2 mM Boc-AAPAN in a cuvette, 0.01-0.1 ml of DMSO with or without inhibitor was added. After mixing, a measurement was taken at 410 nm to detect any spontaneous hydrolysis due to presence of test compound. 0.05 Milliliters of PMN extract was then added and the ΔOD/min at 410 nm was measured and recorded. A Beckman model 35 spectrophotometer was used.
# Results were reported as ED50, i.e., effective dosage in micrograms per milliliter (μg/ml) for 50% inhibition of the enzyme activity 2 minutes after zero time.
# The elastase activity in the crude PMN extract may vary from one preparation to another. A control of each new batch is run, and the volume added in the assay procedure is adjusted according to activity.
row,SMILES,IC50 [µM]
1,C=C(CCC(C)[C@H]1CC=C2C3=C([C@@H](O)[C@H](O)C21C)C1(C)C[C@@H](O)[C@H](OS(=O)(=O)O)C(C)(C)[C@@H]1CC3)C(C)C (some centres unmarked) [Compound 11],3.44
2,C=C(CCC(C)[C@H]1CC=C2C3=C([C@@H](O)[C@H](OC(C)=O)C21C)C1(C)C[C@@H](O)[C@H](OS(=O)(=O)O)C(C)(C)[C@@H]1CC3)C(C)C (some centres unmarked) [Compound 1],2.35
3,C=C(CCC(C)[C@H]1CC=C2C3=C([C@@H](OC(C)=O)[C@H](OC(C)=O)C21C)C1(C)C[C@@H](OC(C)=O)[C@H](OS(=O)(=O)O)C(C)(C)[C@@H]1CC3)C(C)C (some centres unmarked) [Compound 10],262
4,C=C(CCC(C)[C@H]1CC=C2C3=C([C@@H](O)[C@H](OC(C)=O)C21C)C1(C)C[C@@H](O)[C@H](O)C(C)(C)[C@@H]1CC3)C(C)C (some centres unmarked) [Compound 5],1.75
5,C=C(CCC(C)[C@H]1CCC2C3=C([C@@H](O)[C@H](OC(C)=O)C21C)C1(C)C[C@@H](O)[C@H](OS(=O)(=O)O)C(C)(C)[C@@H]1CC3)C(C)C (some centres unmarked) [Compound 2],2.51
